The values below are quoted from earlier work in patent US20240139186A1, “METHODS OF TREATING HIV” (Janssen Sciences Ireland Unlimited Company, priority 2019, published 2024).

The conditions of the data set: adult and pediatric participants receiving abacavir in clinical studies.

Regarding `Nc1nc(NC2CC2)c2ncn([C@H]3C=C[C@@H](CO)C3)c2n1` [abacavir], the “hypersensitivity reactions reported, proportion of participants” value is “approximately 5%”.
